Results as given in publication PMC9405973, “Altered Conformational Landscape upon Sensing Guanine Nucleotides in a Disease Mutant of Elongation Factor-like 1 (EFL1) GTPase” (Biomolecules, 2022).

Biological target: T1, Efl1 wild type in complex with Sdo1 and 60S subunits (Saccharomyces cerevisiae, UniProt P53893)
T1 construct: made in house; host or cells: Efl1: Saccharomyces cerevisiae; Sdo1: Escherichia coli C41; 60S subunits purified from S. cerevisiae strain JD1370
T1 sequence (P53893 1-1110): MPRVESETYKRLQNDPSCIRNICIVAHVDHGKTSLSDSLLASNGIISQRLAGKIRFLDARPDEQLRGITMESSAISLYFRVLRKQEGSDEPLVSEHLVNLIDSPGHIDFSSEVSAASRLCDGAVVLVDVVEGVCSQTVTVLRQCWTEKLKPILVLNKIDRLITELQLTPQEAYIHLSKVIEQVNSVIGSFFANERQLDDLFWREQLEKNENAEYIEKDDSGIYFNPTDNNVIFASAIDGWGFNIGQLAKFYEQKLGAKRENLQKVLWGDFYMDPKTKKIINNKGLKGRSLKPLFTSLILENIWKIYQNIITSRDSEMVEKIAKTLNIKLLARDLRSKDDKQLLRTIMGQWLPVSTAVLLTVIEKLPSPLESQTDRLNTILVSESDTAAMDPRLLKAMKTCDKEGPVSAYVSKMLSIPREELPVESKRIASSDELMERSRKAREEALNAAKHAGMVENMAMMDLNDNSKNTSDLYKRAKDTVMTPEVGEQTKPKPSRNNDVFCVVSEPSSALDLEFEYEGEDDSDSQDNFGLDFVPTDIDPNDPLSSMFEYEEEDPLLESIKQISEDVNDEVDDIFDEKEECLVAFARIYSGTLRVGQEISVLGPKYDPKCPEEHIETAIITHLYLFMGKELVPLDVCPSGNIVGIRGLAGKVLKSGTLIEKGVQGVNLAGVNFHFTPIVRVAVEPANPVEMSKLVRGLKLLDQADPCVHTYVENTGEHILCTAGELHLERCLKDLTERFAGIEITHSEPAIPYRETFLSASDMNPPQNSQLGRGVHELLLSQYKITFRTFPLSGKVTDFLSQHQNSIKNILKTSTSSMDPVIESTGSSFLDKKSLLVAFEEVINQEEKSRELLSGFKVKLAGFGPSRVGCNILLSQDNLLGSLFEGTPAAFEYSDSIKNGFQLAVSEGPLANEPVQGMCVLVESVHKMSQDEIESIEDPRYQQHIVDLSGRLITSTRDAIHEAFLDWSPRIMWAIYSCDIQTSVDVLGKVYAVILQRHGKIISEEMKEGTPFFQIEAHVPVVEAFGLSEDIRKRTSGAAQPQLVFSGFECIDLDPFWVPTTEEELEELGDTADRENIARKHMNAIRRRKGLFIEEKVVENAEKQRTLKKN
T1 sequence (Q07953 1-250 partner): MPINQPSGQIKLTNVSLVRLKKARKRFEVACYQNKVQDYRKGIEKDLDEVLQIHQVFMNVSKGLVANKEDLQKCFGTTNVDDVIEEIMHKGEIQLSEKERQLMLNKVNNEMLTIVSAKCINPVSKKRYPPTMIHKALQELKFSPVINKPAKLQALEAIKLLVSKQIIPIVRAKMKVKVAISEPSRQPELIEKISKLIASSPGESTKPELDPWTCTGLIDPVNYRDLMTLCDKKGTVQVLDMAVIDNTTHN
Experiment: Steady state fluorescence binding of mant-GTP to Efl1 wild type in complex with Sdo1 and 60S subunits
Settings: 25 °C, one-binding-site model; read-out: dissociation constant (Kd)
Experimental: We measured the binding of different Efl1 constructs present in complex with Sdo1 and 60S subunits to the fluorescence GTP analogue, mant-GTP, by following the increase in the fluorescence signal after excitation at 355 nm. Fluorescence intensities were plotted as a function of increasing nucleotide concentrations, and the dissociation constant (Kd) was calculated by fitting the data to a one-binding-site model (Supplementary Figure S1B).
Hydrolysis of GTP was measured using the Enzchek Phosphate Assay kit (Molecular Probes) as described by Webb. Standard reactions consisted of 100 µL containing 6 µM of Efl1 R1086Q and Efl1 L910K, 0.3 mM MESG, 1.0 U purine nucleoside phosphorylase (PNP) and the indicated amounts of GTP. […]
Reactions were initiated and the GTPase was added after 3 min. Time courses were followed by recording the change in absorbance at 360 nm in a Cary 60 UV -Vis spectrophotometer (Agilent Technologies). Background absorbance was recorded prior to the addition of the GTPase and subtracted from the sample signals. The slope of the measured time courses corresponded to the GTP hydrolysis rate. […] Data were analysed by nonlinear regression to the M ichaelis-Menten equation with the program Origin Version 5.0 (OriginLab, Co., Northampton, MA). […]
Steady state fluorescence measurements […]
Maximum emission at 440 nm was replotted as a function of nucleotide concentration and analysed

Molecule `CNc1ccccc1C(=O)O[C@H]1[C@@H](O)[C@H](n2cnc3c(=O)[nH]c(N)nc32)O[C@@H]1COP(=O)(O)OP(=O)(O)OP(=O)(O)O` [mant-GTP] has a Kd of 36 µM.
